Publication PMC8400246, “Antimicrobial Activity and Action Mechanisms of Arg-Rich Short Analog Peptides Designed from the C-Terminal Loop Region of American Oyster Defensin (AOD)” (Marine Drugs, 2021)
Positions of bridges follow the written chain, without caps; N, C: chain ends. Residues, ends and D or L forms follow the SMILES beside them.

Assays:
C. acnes KCTC3314 = assay: Ultrasensitive radial diffusion assay (URDA), MEC; assay type: cell-based, Cutibacterium acnes; details: C. acnes KCTC3314, Gram +, anaerobic, RCM, 72 h, 37 °C, triplicate, averaged
Description: (§1) The antimicrobial activity of the AOD analogs was assessed with an ultrasensitive radial diffusion assay (URDA), as described previously. The antimicrobial activity of the analogs (from 31.3 to 1000 μg/mL, 5 μL volume) was tested against several bacteria, including Bacillus subtilis KCTC1021, Streptococcus mutans KCCM40105, Aeromonas hydrophila KCTC2358, Escherichia coli D31, E. coli ML35p, Pseudomonas aeruginosa KCTC2004, Salmonella enterica KCTC2514, and Shigella sonnei KCTC2009. In addition, Cutibacterium acnes KCTC3314, Staphylococcus epidermidis KCTC1917, and Candida albicans KCTC7965 were used for the anti-acne activity test. All except C. acnes KCTC3314 were grown overnight for 18 h in tryptic soy broth (TSB; for bacteria) or Sabouraud dextrose broth (SDB; for C. albicans) at the appropriate temperature (25 °C for A. hydrophila, 37 °C for the others). C. acnes was grown for 72 h in reinforced clostridial medium (RCM) under anaerobic conditions with an anaerobic gas-generating pouch (GasPak EZ; Becton Dickinson and Company, Sparks, MD, USA) at 37 °C. Following overnight or 72-h incubation, the bacterial and C. albicans suspensions were diluted to a McFarland turbidity standard level of 0.5 (Vitek Colorimeter #52-1210; Hach, Loveland, CO, USA) corresponding to approximately 10^8 colony forming units (CFU)/mL for bacteria and 10^6 CFU/mL for C. albicans. Diluted bacterial or C. albicans suspension (0.5 mL) was added to 9.5 mL underlay gel containing 5 × 10^6 or 5 × 10^4 CFU/mL in 10 mM phosphate buffer (pH 6.6) with 0.03% TSB (or RCM) or 0.03% SDB and 1% Type I low-electroendosmosis agarose. The AOD analogs were serially diluted two-fold in 5 µL acidified water (0.01% acetic acid; HAc) and each dilution was added to 2.5-mm diameter wells in the 1-mm thick underlay gel. After incubation for 3 h at either 25 °C (for A. hydrophila) or 37 °C (for the others), the bacterial or yeast suspension was overlaid with 10 mL double-strength overlay gel containing 6% TSB, RCM, or SDB with 10 mM phosphate buffer (pH 6.6) in 1% agarose. Plates were incubated for an additional 18–24 h (72 h for C. acnes) and the clearing zone diameters were measured. After subtracting the diameter of the well (2.5 mm), the clearing zone diameter was expressed in units (0.1 mm = 1 U).
(§2) The minimal effective concentration (MEC; μg/mL) of the AOD analogs was calculated as the X-intercept of a plot of clearing zone diameter units against the log10 of the peptide concentration. Piscidin 1, an α-helical AMP isolated from hybrid striped bass (Morone saxatilis × Morone chrysops) was used as a positive control.

E. coli ML35p = assay: Ultrasensitive radial diffusion assay (URDA), MEC; assay type: cell-based, Escherichia coli; details: Gram -, pH 6.6, 37 °C, triplicate, averaged
Description: as §1, §2

E. coli D31 = assay: Ultrasensitive radial diffusion assay (URDA), MEC; assay type: cell-based, Escherichia coli; details: E. coli D31, Gram -, pH 6.6, 37 °C, triplicate, averaged
Description: as §1, §2

S. sonnei KCTC2009 = assay: Ultrasensitive radial diffusion assay (URDA), MEC; assay type: cell-based, Shigella sonnei; details: S. sonnei KCTC2009, Gram -, pH 6.6, 37 °C, triplicate, averaged
Description: as §1, §2

S. mutans KCCM40105 = assay: Ultrasensitive radial diffusion assay (URDA), MEC; assay type: cell-based, Streptococcus mutans; details: S. mutans KCCM40105, Gram +, pH 6.6, 37 °C, triplicate, averaged
Description: as §1, §2

A. hydrophila KCTC2358 = assay: Ultrasensitive radial diffusion assay (URDA), MEC; assay type: cell-based, Aeromonas hydrophila; details: A. hydrophila KCTC2358, Gram -, pH 6.6, 25 °C, triplicate, averaged
Description: as §1, §2

B. subtilis KCTC1021 = assay: Ultrasensitive radial diffusion assay (URDA), MEC; assay type: cell-based, Bacillus subtilis; details: B. subtilis KCTC1021, Gram +, 10 mM phosphate buffer pH 6.6, 37 °C, X-intercept of clearing zone vs log10 concentration, triplicate, averaged
Description: as §1, §2

C. albicans KCTC7965 = assay: Ultrasensitive radial diffusion assay (URDA), MEC; assay type: cell-based, Candida albicans; details: C. albicans KCTC7965, yeast, SDB, pH 6.6, 37 °C, triplicate, averaged
Description: as §1, §2

[1] = test system: tested strains (bacteria and the yeast C. albicans); assay: URDA, overall antimicrobial activity; assay type: cell-based; details: all tested strains
Description: The antimicrobial activity of the AOD analogs was assessed with an ultrasensitive radial diffusion assay (URDA), as described previously. The antimicrobial activity of the analogs (from 31.3 to 1000 μg/mL, 5 μL volume) was tested against several bacteria, including Bacillus subtilis KCTC1021, Streptococcus mutans KCCM40105, Aeromonas hydrophila KCTC2358, Escherichia coli D31, E. coli ML35p, Pseudomonas aeruginosa KCTC2004, Salmonella enterica KCTC2514, and Shigella sonnei KCTC2009. In addition, Cutibacterium acnes KCTC3314, Staphylococcus epidermidis KCTC1917, and Candida albicans KCTC7965 were used for the anti-acne activity test. All except C. acnes KCTC3314 were grown overnight for 18 h in tryptic soy broth (TSB; for bacteria) or Sabouraud dextrose broth (SDB; for C. albicans) at the appropriate temperature (25 °C for A. hydrophila, 37 °C for the others). C. acnes was grown for 72 h in reinforced clostridial medium (RCM) under anaerobic conditions with an anaerobic gas-generating pouch (GasPak EZ; Becton Dickinson and Company, Sparks, MD, USA) at 37 °C. […] Plates were incubated for an additional 18–24 h (72 h for C. acnes) and the clearing zone diameters were measured. […]
The minimal effective concentration (MEC; μg/mL) of the AOD analogs was calculated as the X-intercept of a plot of clearing zone diameter units against the log10 of the peptide concentration. […]

S. enterica KCTC2514 = assay: Ultrasensitive radial diffusion assay (URDA), MEC; assay type: cell-based, Salmonella enterica; details: S. enterica KCTC2514, Gram -, pH 6.6, 37 °C, triplicate, averaged
Description: as §1, §2

P. aeruginosa KCTC2004 = assay: Ultrasensitive radial diffusion assay (URDA), MEC; assay type: cell-based, Pseudomonas aeruginosa; details: P. aeruginosa KCTC2004, Gram -, pH 6.6, 37 °C, triplicate, averaged
Description: as §1, §2

S. epidermidis KCTC1917 = assay: Ultrasensitive radial diffusion assay (URDA), MEC; assay type: cell-based, Staphylococcus epidermidis; details: S. epidermidis KCTC1917, Gram +, pH 6.6, 37 °C, triplicate, averaged
Description: as §1, §2

[2] = test system: 100-bp DNA ladder and DNA polymerase; assay: Competitive binding between DNA and DNA polymerase; details: 1 μg peptide, 0.2 μg 100-bp DNA ladder, DNA polymerase 1.0 μL (5 units/μL), 37 °C, 60 min
Description: To assess the preferential binding ability of the AOD analogs to DNA or DNA polymerase, a competitive binding assay was performed. Briefly, AOD analog was added to a reaction mixture containing DNA or DNA polymerase and incubated for 60 min at 37 °C. […] Piscidin 1 and 0.01% HAc were the positive and negative controls, respectively.

100-bp DNA ladder = assay: DNA binding assay (electrophoretic mobility shift); details: 1 μg analog with 0.2 μg 100-bp DNA ladder, 37 °C, 60 min, 1.8% agarose gel with EtBr
Description: To evaluate the binding ability of the AOD analogs to intracellular components, a DNA binding assay was performed as previously described with minor modifications. The DNA-binding ability of the AOD analogs was assessed through observation of the inhibition of migration of DNA bands through agarose gels. A commercial 100-bp DNA ladder (0.2 μg) (Bioneer Corp., Daejeon, South Korea) was mixed with each analog (1 μg) in 0.01% acetic acid, and the resulting mixture was incubated at 37 °C for 60 min and then electrophoresed on 1.8% agarose gels containing 0.5 μg/mL ethidium bromide (EtBr). HAc (0.01%) was used as a negative control.
To determine the concentration required for the interaction of AOD analogs with DNA, a DNA binding assay was performed with various mixing ratios of analog A3 (0.25–1.0 μg/mL) and 100-bp DNA ladder (0.1–0.4 μg), as described above.

[3] = test system: E. coli DH5α genomic DNA (16S ribosomal gene); assay: DNA amplification (PCR) inhibition assay; assay type: biochemical, Escherichia coli; details: 1.5 µg of each analog, 0.2 µg E. coli DH5α gDNA, 30 cycles
Description: To determine whether AOD analogs target DNA amplification, the ability of the analogs to inhibit DNA amplification was assessed using E. coli DH5α genomic DNA (gDNA). Total gDNA was extracted using the phenol–chloroform method, as described previously. To assess the inhibition of DNA amplification, 1.5 µg AOD analog was added to the polymerase chain reaction (PCR) mixture. The PCR solution consisted of 0.2 µg purified gDNA, 5 µL 10× PCR buffer with MgCl2, 4 µL of each dNTP at 2.5 mM, 0.25 μL Ex Taq polymerase (Takara Bio, Shiga, Japan), 2.0 pmol each of primers 27F (5′-[…]-3′) and 1492R (5′-TACGGCTACCTTGTTACGA-CTT-3′), and up to 50 µL sterile distilled water. The PCR thermal cycling conditions were as follows: initial denaturation at 94 °C for 5 min; 30 cycles of 94 °C for 30 s, 55 °C for 30 s, and 72 °C for 2 min; and a final extension for 10 min at 72 °C. PCR was conducted using a Type 9700 Thermal Cycler (Perkin-Elmer, Norwalk City, CA, USA). The PCR products were confirmed through 1.5% agarose gel electrophoresis with 0.5 μg/mL EtBr. Piscidin 1 was used as a positive control and 0.01% HAc was used as a negative control.

Compound | Minimal Effective Concentration (C. acnes KCTC3314) [µg/mL] | Minimal Effective Concentration (E. coli ML35p) [µg/mL] | Minimal Effective Concentration (E. coli D31) [µg/mL] | Minimal Effective Concentration (S. sonnei KCTC2009) [µg/mL] | Minimal Effective Concentration (S. mutans KCCM40105) [µg/mL] | Minimal Effective Concentration (A. hydrophila KCTC2358) [µg/mL] | Minimal Effective Concentration (B. subtilis KCTC1021) [µg/mL] | Minimal Effective Concentration (C. albicans KCTC7965) [µg/mL] | antimicrobial activity (in words) [1] | Minimal Effective Concentration (S. enterica KCTC2514) [µg/mL] | Minimal Effective Concentration (P. aeruginosa KCTC2004) [µg/mL] | Minimal Effective Concentration (S. epidermidis KCTC1917) [µg/mL] | competitive binding between DNA and DNA polymerase (electrophoretic mobility of DNA) [2] | electrophoretic mobility of the DNA (DNA-binding ability) (100-bp DNA ladder) | inhibition of DNA amplification (PCR) [3]
CC(C)C[C@@H]1NC(=O)[C@H](CO)NC(=O)CNC(=O)[C@H](C)NC(=O)[C@@H](N)CSSC[C@@H](C(=O)O)NC(=O)[C@H]([C@@H](C)O)NC(=O)[C@H](CC(C)C)NC(=O)[C@H](CCCNC(=N)N)NC1=O [Analog A0] (H-CAGSLRLTC-OH; disulfide 1-9) | >100.0 | >100.0 | >100.0 | >100.0 | >100.0 | >100.0 | >100.0 | >125.0 | no activity against any of the tested strains | >100.0 | >100.0 | >100.0 |  |  | 
CC(=O)N[C@H]1CSSC[C@@H](C(N)=O)NC(=O)[C@H](CCCNC(=N)N)NC(=O)[C@H](CC(C)C)NC(=O)[C@H](CCCNC(=N)N)NC(=O)[C@H](CCCNC(=N)N)NC(=O)[C@H](Cc2c[nH]c3ccccc23)NC(=O)CNC(=O)[C@H](C)NC1=O [Analog A1] (Ac-CAGWRRLRC-NH2; disulfide 1-9) | >100.0 | >100.0 | 42.0 | 40.0 | 68.0 | 17.0 | 14.0 | >125.0 | much weaker antimicrobial activity than the other analogs | 24.0 | 15.0 | >100.0 | inhibited | inhibited | partially or completely inhibited
CC(C)C[C@@H]1NC(=O)[C@H](CCCNC(=N)N)NC(=O)[C@H](CC(C)C)NC(=O)[C@H](CCCNC(=N)N)NC(=O)[C@H](Cc2c[nH]c3ccccc23)NC(=O)[C@H](CCCNC(=N)N)NC(=O)[C@@H](N)CSSC[C@@H](C(=O)O)NC(=O)[C@H](CCCNC(=N)N)NC1=O [Analog A2] (H-CRWRLRLRC-OH; disulfide 1-9) | >100.0 | 13.0 | 2.0 | 18.0 | 9.9 | 14.0 | 3.8 | >125.0 |  | 20.0 | 7.6 | 24.0 | inhibited | inhibited | did not inhibit
